Test results reported in patent US8946119B2, “Chitooligosaccharides and methods for use in enhancing soybean growth” (Novozymes BioAg A/S, priority 2011, dated 2015).

Tests used:
soybean foliage = assay: Soybean field trials, foliar treatment, grain yield; settings: in vivo
[1] = test system: Soybean seeds (Jung seed, var. 8168NRR); assay: Greenhouse soybean seed treatment, leaf surface area; assay type: in vivo; settings: seed treatment 3 fl oz/100 lbs of seed; seedlings grown 4 wks; central leaflet of 2nd trifoliate; vs control (water); FIG. 5
Procedure: Soybean seeds (Jung seed, var. 8168NRR) were treated with various active molecules. Seeds were treated with a liquid dose rate of 3 fl oz/100 lbs of seed. Seeds were allowed to dry for a 2 hours and planted in greenhouse in plastic pots containing 1:1 sand:perlite mixture. Seedlings were grown for 4 wks with occasional liquid fertilizer applications and then the plants were harvested. The central leaflet from the 2nd trifoliate (from down to top) was isolated and measured for surface area on a WinRhizo scanner. The rest of the plants were used for plant dry weight (DW).

[2] = test system: Soybean seeds (Pioneer 9oM80); assay: Soybean seed treatment in petriplates, radicle length; assay type: in vivo; settings: germination paper soaked with 5 ml of treatment solution; radicles measured after 48 hours; FIG. 7
Procedure: Soybean seeds (Pioneer 9oM80) were plated in petriplates on moist germination paper soaked with 5 ml of treatment solution containing either water or Soybean LCO, Pea CO and CO plus fatty acids. Seedling radicles were isolated after 48 hours and measured for their length.

[3] = test system: Soybean plants (Jung seed, var. 8168NRR); assay: Greenhouse soybean foliar treatment, plant dry biomass; assay type: in vivo; settings: foliar application at V4 growth stage, FIG. 8
Procedure: Soybean plants (Jung seed, var. 8168NRR) were treated with various active molecules at V4 growth stage. Plant were grown from seeds in greenhouse in plastic pots containing 1:1 sand:perlite mixture. Seedlings were grown for 4 wks with occasional liquid fertilizer applications and then the plants were harvested.

## LCO-V (C18:1) [LCO (SP104)]
Soybean foliage
  Positive Yield Response (%): 68.4%
  Response (bu/A) over Control: 1.8 bu/A
  Response Increase (% of Control): 3%
  YIELD, Mean (N = 19): 58.3 bu/A
[1]
  leaf surface area: significant increase in leaf surface area

## LCO-V(C18:1, MeFuc) [soybean LCO]
[2]
  radicle length: better seed radicle growth enhancement over control and CO
[3]
  plant dry biomass: no significant effect on plant dry biomass increase
[3]; listed as LCO
  plant dry biomass: relatively higher than the control plants
